We go through twelve molecules from ChEMBL document CHEMBL1153472 (Bioorg Med Chem Lett, 2009).

For series [1], the target named is Beta-3 adrenergic receptor (Homo sapiens, UniProt P13945). Put plainly: Agonist activity at human recombinant adrenergic beta3 receptor expressed in CHO cells assessed as stimulation of cAMP level after 1 hr by enzyme immunoassay. Format: functional, cell-based. In general terms: Changes in cAMP serve as a functional read-out for many G protein-coupled receptors.

Series [2] deals with Beta-1 adrenergic receptor (Homo sapiens, UniProt P08588). Nature of the series: Agonist activity at human recombinant adrenergic beta-1 receptor expressed in CHO cells assessed as stimulation of cAMP level after 1 hr by enzyme immunoassay. Format: functional, cell-based.
Series [3] is described as follows: Cmax in po dosed dog. Format: ADME, organism-based, Canis lupus familiaris. On the set-up: route oral. Particulars: in vivo.
Series [4] is described as follows: AUC (0 to 24 hrs) in po dosed dog. Format: ADME, organism-based, Canis lupus familiaris. On the set-up: time < 24 hr, route oral. The following applies: plasma.
Series [5] concerns the target Beta-2 adrenergic receptor (Homo sapiens, UniProt P07550). Put plainly: Agonist activity at human recombinant adrenergic beta2 receptor expressed in CHO cells assessed as stimulation of cAMP level after 1 hr by enzyme immunoassay. Format: functional, cell-based.
Series [6] in a line: Oral bioavailability in dog. Format: ADME, organism-based, Canis lupus familiaris. The following applies: in vivo.
Series [7] can be described thus: Total clearance in iv dosed dog. Format: ADME, organism-based, Canis lupus familiaris. The following applies: in vivo.
Series [8] in a line: Half life in iv dosed dog. Format: ADME, organism-based, Canis lupus familiaris. Particulars: in vivo.
Series [9] can be described thus: Protein binding in dog. Format: ADME, organism-based, Canis lupus familiaris. The following applies: in vivo, read-out: PB (converted).
A further series deals with Canis familiaris. Put plainly: Inhibition of carbachol-induced increase in intravesical pressure in intraduodenally dosed Beagle dog overactive bladder model administered after carbachol challenge followed by reinjection of carbachol 30 mins post drug dose measured for 180 mins. Format: functional. The following applies: Canis lupus familiaris, intraduodenal.
For series [10], the target named is Beta-3 adrenergic receptor (Canis lupus familiaris, UniProt O02662). Put plainly: Agonist activity at dog recombinant adrenergic beta3 receptor expressed in CHO cells assessed as stimulation of cAMP level after 1 hr by enzyme immunoassay. Format: functional, cell-based.
Beta-3 adrenergic receptor (Canis lupus familiaris, UniProt O02662), sequence (O02662 whole entry): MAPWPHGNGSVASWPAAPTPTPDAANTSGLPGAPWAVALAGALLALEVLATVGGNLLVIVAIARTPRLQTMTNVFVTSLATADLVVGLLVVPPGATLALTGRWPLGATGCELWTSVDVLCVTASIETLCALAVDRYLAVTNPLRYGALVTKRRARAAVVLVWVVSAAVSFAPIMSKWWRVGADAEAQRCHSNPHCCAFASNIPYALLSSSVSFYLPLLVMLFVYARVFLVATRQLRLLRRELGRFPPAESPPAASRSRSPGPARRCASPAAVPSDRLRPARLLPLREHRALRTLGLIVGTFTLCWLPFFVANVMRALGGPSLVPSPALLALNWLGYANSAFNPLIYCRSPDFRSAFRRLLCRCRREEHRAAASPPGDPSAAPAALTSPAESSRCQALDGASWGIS

Beta-1 adrenergic receptor, sequence (P08588 whole entry): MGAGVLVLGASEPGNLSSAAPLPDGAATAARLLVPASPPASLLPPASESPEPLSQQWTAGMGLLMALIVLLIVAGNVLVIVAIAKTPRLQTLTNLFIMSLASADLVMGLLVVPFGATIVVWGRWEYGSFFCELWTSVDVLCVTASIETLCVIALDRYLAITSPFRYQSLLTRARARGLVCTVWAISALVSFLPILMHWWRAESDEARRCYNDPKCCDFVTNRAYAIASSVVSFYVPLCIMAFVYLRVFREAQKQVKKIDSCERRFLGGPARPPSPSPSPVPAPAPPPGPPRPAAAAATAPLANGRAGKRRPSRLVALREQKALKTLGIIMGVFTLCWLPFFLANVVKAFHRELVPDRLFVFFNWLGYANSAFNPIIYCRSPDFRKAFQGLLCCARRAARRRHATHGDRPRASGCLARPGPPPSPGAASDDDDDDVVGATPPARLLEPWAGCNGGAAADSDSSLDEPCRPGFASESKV
Beta-3 adrenergic receptor (Homo sapiens, UniProt P13945), sequence (P13945 whole entry): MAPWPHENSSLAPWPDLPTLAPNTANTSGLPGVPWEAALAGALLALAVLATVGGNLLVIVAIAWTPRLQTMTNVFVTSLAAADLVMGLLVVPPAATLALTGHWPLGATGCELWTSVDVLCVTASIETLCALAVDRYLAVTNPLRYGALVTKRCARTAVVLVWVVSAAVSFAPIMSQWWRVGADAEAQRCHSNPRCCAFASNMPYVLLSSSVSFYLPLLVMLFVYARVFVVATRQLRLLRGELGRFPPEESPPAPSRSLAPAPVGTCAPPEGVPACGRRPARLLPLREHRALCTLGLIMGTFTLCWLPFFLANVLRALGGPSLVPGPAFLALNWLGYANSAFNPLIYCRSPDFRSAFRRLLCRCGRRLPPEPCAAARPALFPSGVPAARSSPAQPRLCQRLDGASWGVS
Beta-2 adrenergic receptor, sequence (P07550 whole entry): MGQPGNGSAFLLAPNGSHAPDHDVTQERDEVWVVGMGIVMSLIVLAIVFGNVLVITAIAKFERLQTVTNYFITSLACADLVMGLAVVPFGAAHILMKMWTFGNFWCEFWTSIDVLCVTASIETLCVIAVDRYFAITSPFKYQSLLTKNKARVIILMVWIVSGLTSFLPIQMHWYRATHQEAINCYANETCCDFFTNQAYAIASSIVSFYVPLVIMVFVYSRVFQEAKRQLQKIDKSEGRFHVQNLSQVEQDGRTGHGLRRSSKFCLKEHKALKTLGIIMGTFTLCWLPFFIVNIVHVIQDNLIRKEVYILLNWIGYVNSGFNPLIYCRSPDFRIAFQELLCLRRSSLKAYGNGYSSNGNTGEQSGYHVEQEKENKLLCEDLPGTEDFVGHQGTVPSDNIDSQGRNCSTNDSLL

Usually EC50 stands for the midpoint of the concentration-response curve. Take `COc1ccc([C@@H](O)[C@H](C)NCCc2ccc(-c3ccc(C(=O)NS(C)(=O)=O)c(OC4CCCCC4)c3)cc2)cc1`: the half-maximal effective concentration (EC50) is 28 nM in series [1] and over 1000 nM in [2].

For orientation: Cmax means the peak of the concentration-time curve. Usually AUC(0-t) stands for exposure summed from dosing to a finite time, without extrapolation to infinity. A lower AUC(0-t) goes with less exposure. For the molecule `CS(=O)(=O)NC(=O)c1ccc(-c2ccc(CCNC[C@H](O)c3cccc(N)c3)cc2)cc1OC1CCCCC1`, the EC50 in series [1] is 1.2 nM; in [2], over 1000 nM. This molecule also came in with a Cmax in series [3] of 6.1 ng/mL. Also, the AUC(0-t) at 24 h in [4] turned out to be 79.3 ng·h/mL.

For orientation: bioavailability means dose-corrected exposure relative to a reference, in per cent. A higher bioavailability goes with good availability. Usually clearance stands for the rate of elimination divided by the concentration. The half-life is the time needed for the level to fall by half in the phase considered. A lower half-life goes with rapid decline. With `C[C@H](NCCc1ccc(-c2ccc(C(=O)NS(C)(=O)=O)c(OC3CCCCC3)c2)cc1)[C@H](O)c1ccc(O)cc1`, the results for the EC50 in series [5], in [1] and in [2] were over 10000 nM, 0.35 nM and 110 nM, respectively. For the same molecule, the bioavailability in [6] stood at 25%. In addition, the clearance in [7] came to 11 mL/min/kg. In [8], this molecule showed a half-life of 3.5 h. The same molecule displayed a Cmax in [3] of 5.3 ng/mL. In series [4], this molecule showed an AUC(0-t) at 24 h of 39.7 ng·h/mL.

With `CS(=O)(=O)NC(=O)c1ccc(-c2ccc(C[C@@H](CO)NC[C@H](O)c3ccccc3)cc2)cc1OC1CCCCC1`, the EC50 in series [1] was 0.82 nM; in series [2], over 1000 nM. Moreover, the bioavailability in series [6] came to 95%. In [7], this molecule registered a clearance of 2.4 mL/min/kg. In [8], the half-life was 5 h. Further, the highest level in [3] (Cmax) was 59.1 ng/mL. The molecule further gave an AUC(0-t) at 24 h in series [4] of 654 ng·h/mL.

For the molecule `CC(C)Oc1cc(-c2ccc(CCNC[C@H](O)c3cccc(N)c3)cc2)ccc1C(=O)NS(C)(=O)=O`, the EC50 in series [1] is 6 nM; in [2], over 1000 nM. The same molecule showed a bioavailability in series [6] of 46%. In addition, the clearance in series [7] turned out to be 5.1 mL/min/kg. For the same molecule, the half-life in [8] was 4.9 h. The peak level in series [3] (Cmax) was 17.2 ng/mL. Further, in series [4], the AUC(0-t) at 24 h amounted to 143 ng·h/mL.

With `CC(C)Cc1cc(-c2ccc(C[C@@H](C)NC[C@H](O)c3ccccc3)cc2)ccc1C(=O)NS(C)(=O)=O`, the figures for the EC50 in [1] and in series [2] were 0.1 nM and 73 nM, respectively.

As to `CC(=O)Nc1ccc([C@@H](O)CNCCc2ccc(-c3ccc(C(=O)NS(C)(=O)=O)c(OC4CCCCC4)c3)cc2)cn1`, the EC50 in series [1] was 0.23 nM; in [2], over 1000 nM. In series [6], this molecule showed a bioavailability of 43%. Besides, the clearance in series [7] amounted to 8.9 mL/min/kg. The same molecule showed a half-life in series [8] of 1.8 h. The Cmax in [3] was determined as 16.2 ng/mL. Besides, the AUC(0-t) at 24 h in series [4] worked out at 86.5 ng·h/mL.

As for `CS(=O)(=O)NC(=O)c1ccc(-c2ccc(CCNC[C@H](O)c3ccc(N)cc3)cc2)cc1OC1CCCCC1`, the EC50 in series [2] was over 1000 nM.

For the molecule `CC(C)Oc1cc(-c2ccc(CCNC[C@H](O)c3ccc(O)c(NS(C)(=O)=O)c3)cc2)ccc1C(=O)NS(C)(=O)=O`, the EC50 in series [1] was 0.26 nM; in series [2], 150 nM. The same molecule showed a Cmax in series [3] of 1.1 ng/mL. The molecule further gave an AUC(0-t) at 24 h in [4] of 4.4 ng·h/mL.

`CC(C)Oc1cc(-c2ccc(CCNC[C@H](O)c3ccc(N)cc3)cc2)ccc1C(=O)NS(C)(=O)=O`: in series [2], the EC50 was over 1000 nM.

For orientation: ED50 means the dose that gives a 50% effect, or the effect in half of the subjects. Low values mean greater potency, high ones weaker potency. As to `CC(C)Oc1cc(-c2ccc(CCN[C@@H](C)[C@H](O)c3ccc(O)cc3)cc2)ccc1C(=O)NS(C)(=O)=O`, the EC50 in [5] was over 10000 nM; in series [1], 0.16 nM; in series [10], 1 nM; in series [2] it was 290 nM. In series [6], this molecule yielded a bioavailability of 56%. In addition, the fraction unbound in series [9] is 0.1. Moreover, the clearance in series [7] was found to be 7.9 mL/min/kg. The half-life in [8] is 6.7 h. This molecule registered an ED50 with Canis familiaris of 5.9 mg/kg. In [3], this molecule registered a Cmax of 23.2 ng/mL. The same molecule had an AUC(0-t) at 24 h in series [4] of 117 ng·h/mL.

In the case of `CC(C)Oc1cc(-c2ccc(CCN[C@@H](C)[C@H](O)c3cccc(O)c3)cc2)ccc1C(=O)NS(C)(=O)=O`, the EC50 in series [1] was found to be 0.044 nM; in [2], 130 nM. The molecule also had a Cmax in series [3] of 2.9 ng/mL. The molecule further gave an AUC(0-t) at 24 h in [4] of 7.3 ng·h/mL.
